The text below walks through data of patent publication US9884854B2, “N-[(pyrimidinylamino)propanyl]-and N[(pyrazinylamino)proppanyl]arylcarboxamides” (Boehringer Ingelheim International GmbH, priority 2016, dated 2018).

In data set [1] the target is T1, human Orexin 1 receptor (Homo sapiens, UniProt O43613).
T1 construct: stably expressing the full-length human Orexin 1 receptor and the aequorin photoprotein; expressed in transfected cells; host or cells: CHO-K1 (CHO-K1/hOx1), co-expressing aequorin
T1 sequence (O43613 1-425): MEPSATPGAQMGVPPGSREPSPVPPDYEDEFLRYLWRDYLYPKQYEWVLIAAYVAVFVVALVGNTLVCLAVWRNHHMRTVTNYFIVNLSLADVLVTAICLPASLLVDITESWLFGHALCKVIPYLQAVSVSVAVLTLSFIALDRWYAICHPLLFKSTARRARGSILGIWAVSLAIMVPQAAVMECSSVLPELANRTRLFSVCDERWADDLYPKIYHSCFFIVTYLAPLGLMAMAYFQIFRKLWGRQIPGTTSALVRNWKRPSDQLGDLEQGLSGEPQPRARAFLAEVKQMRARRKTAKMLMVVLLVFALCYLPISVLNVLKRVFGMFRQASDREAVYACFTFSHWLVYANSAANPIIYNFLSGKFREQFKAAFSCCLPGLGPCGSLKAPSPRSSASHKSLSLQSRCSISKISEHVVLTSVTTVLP
The experiment in a line: Assay A: OX1R IP1 (in vitro OX1R potency). Type of data set: cell-based. An excerpt:
Activation of the orexin receptors expressed in cell lines results in an increase in intracellular IP3 concentration. IP1, a downstream metabolite of IP3, accumulates in cells following receptor activation and is stable in the presence of LiCl. Using Homogeneous Time-Resolved Fluorescence technology with Lumi4-Tb cryptate (commercially available from Cisbio Bioassay.) and a suitable fluorescence plate reader. […] This technique is used to characterize pharmacological modification of the orexin receptors.
A. In Vitro Testing of OX1R Potency: OX1R IP1
IP1 measurements are performed in CHO-K1 cells stably expressing the full-length human Orexin 1 receptor and the aequorin photoprotein. Cells are cultivated in Ham's nutrient mixture F12 medium with 10% fetal calf serum, in a 37° C., 95% humidity and 5% CO2 incubator. The CHO-K1/hOx1 cell mass is expanded to larger cell numbers. The cells are obtained as frozen cells in cryo-vials and stored until use at −150° C. […] In preparation for the assay, 24 hours before the assay, the cells are thawed at 37° C. and immediately diluted with cell culture medium. After centrifugation, the cell pellet is re-suspended in medium and then distributed into the assay plates with a density of 10000 cells/25 μL per well. The plates are incubated for one hour at room temperature to reduce edge effects before they are incubated for 24 hours at 37° C./5% CO2. Compounds are prepared by an 8-point serial dilution in DMSO and a final dilution step into assay buffer (HBSS with 20 mM HEPES, 0.1% BSA and 50 mM LiCl, pH 7.4) to ensure a final DMSO concentration of 1% in the assay.
On the day of the assay, cells in the plate are washed twice with 60 μL assay buffer (20 μL buffer remained in the wells after washing), followed by adding 5 μL per well of compounds diluted in assay buffer. After 15 minutes of incubation at room temperature 5 μL per well of Orexin A peptide (final concentration: 0.5 nM, and/or 50 nM) dissolved in assay buffer is added to the assay plate. The assay plate is incubated for 60 minutes at 37° C. Then 5 μl per well of Anti-IP1-Cryptate Tb solution and 5 μl per well of IP1-d2 dilution are added and the plate is incubated for a further 60 minutes light protected at room temperature. […] 8-point four parametric non-linear curve fitting and determination of IC50 values and Hill slopes is performed using a regular analysis software e.g. AssayExplorer (Accelrys).
Kb values from Assay A (OX1R) and Assay B (OX2R) can then provide a selectivity ratio which is independent of the agonist (Orexin A) concentration.

For data set [2], the system named is human MDR1 P-gp. The experiment in a line: Assay D: efflux in MDCK cells transfected with the human MDR1 gene. Type of data set: in vitro ADME, canine. The following applies: dog; MDCK-MDR1 monolayers, pH 7.4, 37° C.; read-out: MDCK efflux ratio (BA/AB). The protocol:
The MDCK assay provides information on the potential of a compound to pass the blood brain barrier. Permeability measurements across polarized, confluent MDCK-MDR1 cell monolayers grown on permeable filter supports are used as an in vitro absorption model: apparent permeability coefficients (PE) of the compounds across the MDCK-MDR1 cell monolayers are measured (pH 7.4, 37° C.) in apical-to-basal (AB) and basal-to-apical (BA) transport direction. The AB permeability (PEAB) represents drug absorption from the blood into the brain and the BA permeability (PEBA) drug efflux from the brain back into the blood via both, passive permeability as well as active transport mechanisms mediated by efflux and uptake transporters that are expressed on the MDCK-MDR1 cells, predominantly by the overexpressed human MDR1 P-gp. Identical or similar permeabilities in both transport directions indicate passive permeation, vectorial permeability points to additional active transport mechanisms. Higher PEBA than PEAB (PEBA/PEAB>5) indicates the involvement of active efflux mediated by MDR1 P-gp, which might compromises the goal to achieve sufficient brain exposure. Therefore this assay provides valuable support for selection of compounds applicable for further in vivo testing. High permeability not limited by efflux at the blood brain barrier is a favourable characteristic for compounds that are to be used for drugs acting primarily in the CNS
D. Assessment of Efflux in Madin-Darby Canine Kidney (MDCK) Cells Transfected with the Human MDR1 Gene
Apparent permeability coefficients (PE) of the compounds across the MDCK-MDR1 cell monolayers are measured (pH 7.4, 37° C.) in apical-to-basal (AB) and basal-to-apical (BA) transport direction. AB permeability (PEAB) represents drug absorption from the blood into the brain and BA permeability (PEBA) drug efflux from the brain back into the blood via both passive permeability as well as active transport mechanisms mediated by efflux and uptake transporters that are expressed on the MDCK-MDR1 cells, predominantly by the overexpressed human MDR1 P-gp. The compounds are assigned to permeability/absorption classes by comparison of the AB permeabilities with the AB permeabilities of reference compounds with known in vitro permeability and oral absorption in the human. Identical or similar permeabilities in both transport directions indicate passive permeation, vectorial permeability points to additional active transport mechanisms. Higher PEBA than PEAB indicates the involvement of active efflux mediated by MDR1 P-gp. Active transport is concentration-dependently saturable.
MDCK-MDR1 cells (1-2×10e5 cells/1 cm2 area) are seeded on filter inserts (Costar transwell polycarbonate or PET filters, 0.4 μm pore size) and cultured (DMEM) for 7 days. Subsequently, the MDR1 expression is boosted by culturing the cells with 5 mM sodium butyrate in full medium for 2 days. Compounds are dissolved in appropriate solvent (like DMSO, 1-20 mM stock solutions). Stock solutions are diluted with HTP-4 buffer (128.13 mM NaCl, 5.36 mM KCl, 1 mM MgSO4, 1.8 mM CaCl2, 4.17 mM NaHCO3, 1.19 mM Na2HPO4×7H2O, 0.41 mM NaH2PO4×H2O, 15 mM HEPES, 20 mM glucose, 0.25% BSA, pH 7.4) to prepare the transport solutions (0.1-300 μM compound, final DMSO<=0.5%). The transport solution (TL) is applied to the apical or basolateral donor side for measuring A-B or B-A permeability (3 filter replicates), respectively. The receiver side contains the same buffer as the donor side. Samples are collected at the start and end of experiment from the donor and at various time intervals for up to 2 hours also from the receiver side for concentration measurement by HPLC-MS/MS or scintillation counting. Sampled receiver volumes are replaced with fresh receiver solution.

The target in data set [3] is T2, OX1R (Homo sapiens, UniProt O43613).
T2 sequence (O43613 1-425): T1 sequence (O43613 1-425)
The following applies: cited from earlier work.

For data set [4], the target named is T3, OX2R (Homo sapiens, UniProt O43614).
T3 sequence (O43614 1-444): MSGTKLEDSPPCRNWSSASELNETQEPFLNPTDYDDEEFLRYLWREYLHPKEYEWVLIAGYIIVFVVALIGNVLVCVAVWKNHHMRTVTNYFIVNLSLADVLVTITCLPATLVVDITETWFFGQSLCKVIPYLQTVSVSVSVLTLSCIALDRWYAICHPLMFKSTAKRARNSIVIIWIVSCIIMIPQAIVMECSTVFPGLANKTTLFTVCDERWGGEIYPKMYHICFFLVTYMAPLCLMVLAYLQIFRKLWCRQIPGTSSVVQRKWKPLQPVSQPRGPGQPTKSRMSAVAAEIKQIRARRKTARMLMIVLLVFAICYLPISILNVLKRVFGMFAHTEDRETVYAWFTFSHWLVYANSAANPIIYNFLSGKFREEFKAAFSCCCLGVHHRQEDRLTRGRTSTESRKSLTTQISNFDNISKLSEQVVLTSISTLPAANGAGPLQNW
The following applies: cited from earlier work.

Setting [5] is: corresponds to pIC50, Table 3 of WO2016/034882.

Where two headings read alike, the source gives them in different places.

For the compound `CCN(C(=O)c1c(F)cccc1-n1nccn1)[C@@H](C)CNc1ncc(C(F)(F)F)cn1` [Example 7], the “more potent at OX1R” value in data set [1] (versus Example 91 in WO2016/034882) came out at 25 fold. In data set [2], the efflux ratio is under 3. As for `CCN(C(=O)c1cccc(F)c1-c1ncccn1)[C@@H](C)CNc1ncc(C(F)(F)F)cn1` [Example 11], the efflux ratio in data set [2] lay in the range of 3 to 5. As for `CC[C@@H](CNc1ncc(C(F)(F)F)cn1)N(C)C(=O)c1nc(C)ccc1-c1ncccn1` [Ex 84 in WO2016/034882, reference compound], in data set [2], the efflux ratio is under 3. For the same compound, in data set [3] (Table 3 of WO2016/034882), the “OX2R IC50/OX1R IC50” value is on record as “Table 3: 526”.

Take `CC[C@@H](CNc1ncc(C(F)(F)F)cn1)N(CC)C(=O)c1nc(C)ccc1-n1nccn1` [Ex 73 in WO2016/034882]: the “OX2R pIC50” value in data set [4] (Table 3 of WO2016/034882) is on record as under 6.0. In data set [4] (setting [5]), the IC50 is over 1 µM.

Take `CCN(C(=O)c1nc(C)ccc1-n1cccn1)[C@@H](C)CNc1ncc(C(F)(F)F)cn1` [Example 12]: the “higher potency at OX1R” value in data set [1] (versus Example 90 in WO2016/034882) is reported as “at least 3 fold”. The efflux ratio in data set [2] was under 3. For `CCN(C(=O)c1c(F)cccc1-c1ncccn1)[C@@H](C)CNc1ncc(C(F)(F)F)cn1` [Example 13], in data set [2], the efflux ratio is under 3.

In the case of `CCN(C(=O)c1cncnc1-c1ccccc1)[C@@H](C)CNc1ncc(C(F)(F)F)cn1` [Example 20], the efflux ratio in data set [2] is under 3. For the compound `CCN(C(=O)c1cc(F)cnc1-n1nccn1)[C@@H](C)CNc1ncc(C(F)(F)F)cn1` [Example 10], the efflux ratio in data set [2] was under 3.

As to `CCN(C(=O)c1ccc(F)cc1-n1nccn1)[C@@H](C)CNc1ncc(C(F)(F)F)cn1` [Example 2], the efflux ratio in data set [2] is under 3. Turning to `CC[C@@H](CNc1cnc(C(F)(F)F)cn1)N(C)C(=O)c1cc(Cl)ccc1-n1nccn1` [Ex 40 in WO2016/034882, reference compound], in data set [2], the efflux ratio was under 3. Besides, the “OX2R IC50/OX1R IC50” value in data set [3] (Table 3 of WO2016/034882) is “Table 3: 156”. For the compound `CCN(C(=O)c1ccc(F)cc1-c1ncccn1)[C@@H](C)CNc1ncc(C(F)(F)F)cn1` [Example 16], the efflux ratio in data set [2] was under 3. Still for that read-out and setting: for `CCN(C(=O)c1ccccc1-n1nccn1)[C@@H](C)CNc1cnc(C(F)(F)F)cn1` [Example 22] the value was 3 to 5. As to `CCN(C(=O)c1nccnc1-c1ccccc1)[C@@H](C)CNc1ncc(C(F)(F)F)cn1` [Example 21], the efflux ratio in data set [2] is under 3. Same read-out and setting: for `CCN(C(=O)c1ccccc1-c1noc(C)n1)[C@@H](C)CNc1ncc(C(F)(F)F)cn1` [Example 14] the value was under 3; for `CCN(C(=O)c1cccc(F)c1-n1nccn1)[C@@H](C)CNc1cnc(C(F)(F)F)cn1` [Example 24], 3 to 5. Regarding `CC[C@@H](CNc1ncc(C(F)(F)F)cn1)N(C)C(=O)c1c(F)cccc1-n1nccn1` [Ex 91 in WO2016/034882], the “OX2R pIC50” value in data set [4] (Table 3 of WO2016/034882) is reported as under 5.1. Also, the IC50 in data set [4] (setting [5]) is at least 7.95 µM. Besides, in data set [2], the efflux ratio is under 3. Turning to `CCN(C(=O)c1ccc(F)c(F)c1-n1nccn1)[C@@H](C)CNc1ncc(C(F)(F)F)cn1` [Example 4], the efflux ratio in data set [2] is under 3. For the compound `CC[C@@H](CNc1ncc(C(F)(F)F)cn1)N(C)C(=O)c1nc(C)ccc1-n1nccn1` [Ex 46 in WO2016/034882], the “OX2R pIC50” value in data set [4] (Table 2 of WO2016/034882) and in data set [4] (Table 3 of WO2016/034882) was under 5.0 each time. Moreover, the IC50 in data set [4] (corresponds to pIC50, Table 2 of WO2016/034882) was over 10 µM; in data set [4] (setting [5]) it was at least 10 µM. Further, the efflux ratio in data set [2] is under 3. In addition, the entries for the “OX2R IC50/OX1R IC50” value in data set [3] (Table 1 of WO2016/034882), in data set [3] (Table 2 of WO2016/034882) and in data set [3] (Table 3 of WO2016/034882) were 390, over 312 and 3200, respectively. As to `CCN(C(=O)c1cc(F)ccc1-c1ncccn1)[C@@H](C)CNc1ncc(C(F)(F)F)cn1` [Example 15], the efflux ratio in data set [2] was under 3.

Consider `CCN(C(=O)c1ncccc1-c1ccccc1)[C@@H](C)CNc1ncc(C(F)(F)F)cn1` [Example 19], for which the efflux ratio in data set [2] was under 3. The same measure, in the same setting: the result for `CCN(C(=O)c1ccc(F)cc1-c1nnc(C)o1)[C@@H](C)CNc1cnc(C(F)(F)F)cn1` [Example 23] reads 3 to 5.

For the compound `CCN(C(=O)c1cc(C#N)ccc1-n1nccn1)[C@@H](C)CNc1ncc(C(F)(F)F)cn1` [Example 8], the efflux ratio in data set [2] lay in the range of 3 to 5. Turning to `CCN(C(=O)c1cc(F)ccc1-n1nccn1)[C@@H](C)CNc1ncc(C(F)(F)F)cn1` [Example 5], the efflux ratio in data set [2] was under 3.
